Data reported in patent US20210283097A1, “METHODS OF DIAGNOSING AND TREATING ALZHEIMER'S DISEASE WITH S-EQUOL” (Ausio Pharmaceuticals, LLC, priority 2016, published 2021).
Entries after “also recorded” stand apart in the source; their conditions may differ.

Assays:
[1] = Montreal Cognitive Assessment (MoCA) in Alzheimer's disease subjects, single-blind pilot clinical study; assay type: in vivo, human; details: for MoCA Visit 2 (Mean + SEM): visit 2 = after two weeks of S-equol 10 mg twice a day; for percent MoCA score change between visit 1 and visit 2 (trend): FIG. 1
Experimental: (§1) Alzheimer's disease subjects were recruited through the University of Kansas Alzheimer's Disease Center (ADC). The ADC maintains a clinical cohort whose routine characterizations include Clinical Dementia Rating (CDR) scale ratings, uniform data set (UDS) cognitive testing, and APOE genotyping. The diagnosis of clinic cohort participants is primarily based on CDR and UDS data, and is determined through a consensus conference that includes subspecialty-trained cognitive neurologists and an expert neuropsychologist. Subjects diagnosed with Alzheimer's disease further meet current criteria for that diagnosis in McKhann et al., Alzheimers Dement, 7 (2011) 263-269.
(§2) To qualify for the study, participants had to be female with very mild (CDR 0.5) or mild (CDR 1) Alzheimer's disease. Each participant was required to have a study partner. As part of the informed consent process, the subjects and study partners were told that during different parts of the study the participants would receive either an S-equol capsule or an inert placebo. The placebo could not be distinguished from the S-equol by sight, touch, or taste so although the investigators knew whether participants at any given point were receiving S-equol or placebo, the participants themselves were blind to the actual treatment. The S-equol and placebo capsule were provided by Ausio Pharmaceuticals, LLC (Cincinnati, Ohio).
(§3) Subjects received a two week supply of medication, which uniformly consisted of placebo, and were instructed to take the study medication twice a day. At the end of this initial two-week period participants returned to the ADC clinical trials unit for their first study visit (visit 1; lead-in evaluation). Visit 1 procedures included an assessment of study medication compliance, vital signs, a query for perceived side effects, the Montreal Cognitive Assessment (MoCA), and a 40 ml phlebotomy; the blood was used to measure platelet mitochondria cytochrome oxidase (COX) and citrate synthase (CS) activities. At the completion of this visit the next two weeks of study medication was dispensed, which uniformly consisted of 10 mg S-equol capsule.
(§4) At the end of this second two-week period participants returned to the ADC clinical trials unit for their second study visit (visit 2; active treatment evaluation). The same procedures were performed during the lead-in evaluation and dispensed the next two weeks of study medication, which at this point uniformly consisted of placebo.
(§5) At the end of this final two-week period the participants returned to the ADC clinical trials unit for their third study visit (visit 3; wash-out evaluation). The lead-in and active treatment evaluation procedures were performed again, which completed participation in this single-blind study.
Secondary outcomes included a safety analysis of the S-equol 10 mg twice per day dose and an analysis of MoCA scores.
In addition to summarizing MoCA scores by means and standard errors, the percent change between visit 1 and visit 2 scores, as well as the percent change between visit 1 and visit 3 scores, was calculated for each participant.

cytochrome oxidase (COX) = details: brains from ovariectomized mice; cited from earlier work
[2] = Safety analysis of S-equol 10 mg twice per day in Alzheimer's disease subjects; assay type: in vivo, human; details: 10 mg twice per day for two weeks, Alzheimer's disease patients
Experimental: as §3, §4
At the end of this final two-week period the participants returned to the ADC clinical trials unit for their third study visit (visit 3; wash-out evaluation). The lead-in and active treatment evaluation procedures were performed again, which completed participation in this single-blind study. […]

[3] = test system: platelet mitochondria cytochrome oxidase (COX); assay: Platelet mitochondria COX activity referenced to CS activity (COX/CS) in Alzheimer's disease subjects, single-blind pilot clinical study; assay type: in vivo, human; details: for COX/CS Visit 2 (Mean + SEM): after two weeks of S-equol 10 mg twice a day
Experimental: as §1, §2, §3, §4, §5
Forty milliliter blood samples were collected in tubes containing acid-citrate-dextrose (ACD) tubes as an anticoagulant, and maintained at room temperature. Within 24 hours of phlebotomy the blood was processed by the ADC Mitochondrial Genomics and Metabolism Core. To initiate the processing procedure, platelets were isolated by centrifugation and enriched mitochondrial fractions prepared using previously described methods. Such procedures involved nitrogen cavitation to rupture platelets followed by centrifugation to collect mitochondria.
The protein concentrations of the enriched mitochondrial fractions were measured using a BCA protein assay kit (BioRad, Hercules, Calif.). COX Vmax activity was determined as a pseudo first order-rate constant (sec−1/mg) by measuring the oxidation of reduced cytochrome c at 550 nm.
In addition to measuring COX activity, each sample's citrate synthase (CS) Vmax activity (nmol/min/mg) was measured. This assay was performed spectrophotometrically by following the formation of 5-thio-2-nitrobenzoate (412 nm) following the addition of 100 μM oxaloacetate at 30° C. […]

rat hippocampal neurons = details: cited from earlier work

Structure (SMILES): Oc1ccc([C@H]2COc3cc(O)ccc3C2)cc1 [S-equol]
- MoCA Visit 2 (Mean + SEM) ([1]; APOE4 Carriers, 8 participants): 15.8 ± 2.5
- percent MoCA score change between visit 1 and visit 2 (trend) ([1]; APOE4 carriers): trended in a downward direction
- MoCA Visit 2 (Mean + SEM) ([1]; APOE4 non-Carriers, 7 participants): 13.3 ± 2.1
- percent MoCA score change between visit 1 and visit 2 (trend) ([1]; APOE4 non-carriers): upward direction
- difference in mean MoCA scores between visits, or between APOE4 carriers and non-carriers ([1]; Table 2): No significant differences
- MoCA Visit 2 (Mean + SEM) ([1]; Total, 15 participants): 14.6 ± 6.6
- cytochrome oxidase (COX) activity and COX1 protein levels (cytochrome oxidase (COX)): increase
- adverse events [2]: No treatment-related adverse events; also recorded: No adverse events occurred
- COX/CS Visit 2 (Mean + SEM) ([3]; APOE4 Carriers, 8 participants): 4.3E−05 ± 3.5E−06
- COX/CS Visit 2 (Mean + SEM) ([3]; APOE4 non-Carriers, Outlier Excluded, 6 participants): 4.7E−05 ± 7.1E−06
- COX/CS Visit 2 (Mean + SEM) ([3]; APOE4 non-Carriers, Outlier Included, 7 participants): 9.2E−05 ± 4.6E−05
- percent COX/CS change between visit 1 and visit 2 (trend), non-APOE4 carriers versus APOE4 carriers ([3]; FIGS. 3(A) and 3(B)): trended higher
- difference in mean COX/CS values between visits, or between APOE4 carriers and non-carriers ([3]; Table 3): No significant differences
- COX/CS Visit 2 (Mean + SEM) ([3]; Total, Outlier Excluded, 14 participants): 4.5E−05 ± 3.5E−06
- COX/CS Visit 2 (Mean + SEM) ([3]; Total, Outlier Included, 15 participants): 6.6E−05 ± 2.2E−05
- participants with a positive COX/CS response pattern (responders) ([3]; slope visit 1 to 2 greater than slope visit 2 to 3, COX activity referenced to CS activity): 11 of the 15
- respiratory and maximal glycolysis fluxes (rat hippocampal neurons): increase
